Series [1] concerns HT29 human colorectal carcinoma cell line. Put plainly: Cytotoxicity (cell growth inhibition) in vitro, 72 h exposure, HT29. Format: cell-based. The conditions noted are these: HT-29, 72 hour-incubation, FA 20 μmol/L and/or PLP 160 μmol/L where present, read-out: IC50 in μmol/L of FUra (95% CI). How it is done: (§1) The human colorectal carcinoma cell lines HT29, and HCT116 and the murine L1210 lymphocytic leukemia were thawed from mycoplasma-free frozen stocks and were controlled for contamination. Cells were grown in customized DMEM cell culture medium without any B6-vitamer (Gibco; Life Technologies) supplemented with 10% FBS and antibiotics (streptomycin, 50 μg/ml, and penicillin, 50 U/ml) at 37° C. in an atmosphere containing 5% CO2.
(§2) Cancer cells were exposed in 12 well-cell plates to FUra in various concentrations under four conditions; either as a single agent [FUra]; in combination with [6R,S]-folinic acid (20 μmon) [FUra-FA]; in combination with PLP (160 μmon; Sigma-Aldrich) [FUra-PLP]; and with both agents [6R,S]-folinic acid (20 μmon), and PLP (160 μmon) together [FUra-AF-PLP]. Cells were harvested 72 hours from start of the exposure. Cell viability was measured with the Trypan Blue dye exclusion test in Malassez chambers or by flow cytometry. For the latter method, living cells defined by light double scatter were counted in a BD Accuri C6 flow cytometer (BD Biosciences). Experiments were in duplicate.
(§3) Growth inhibition data obtained with FUra as a single agent [FUra], FUra with folinic acid [FUra-FA], FUra with PLP [FUra-PLP], and FUra with both folinic acid and PLP combined [FUra-FA-PLP] were studied according to the Median Effect principle for concentration-effect analysis. […]

Series [2] has as its system HCT116 human colorectal carcinoma cell line. Put plainly: Cytotoxicity (cell growth inhibition) in vitro, 72 h exposure, HCT116. Format: cell-based. The note with it: HCT-116, 72 hour-incubation, FA 20 μmol/L and/or PLP 160 μmol/L where present, read-out: IC50 in μmol/L of FUra (95% CI). As for the experimental part:
as §1, §2, §3

Series [3] relates to L1210 murine lymphocytic leukemia. Briefly: Cytotoxicity (cell growth inhibition) in vitro, 72 h exposure, L1210. Format: cell-based. The conditions noted are these: Mus musculus, 72 hour-incubation, FA 20 μmol/L and/or PLP 160 μmol/L where present, read-out: IC50 in μmol/L of FUra (95% CI). As for the experimental part: as §1, §2, §3
In a further series the test system is Cancer cells. Briefly: Cytotoxic properties per se of folinic acid and PLP. Format: cell-based. The conditions noted are these: in concentrations used in the present experiment (folinic acid 20, PLP 160 μmon). How it is done: as §2
Series [4] deals with purified rabbit liver SHMT. The conditions noted are these: read-out: Kd of SHMT for PLP; cited from earlier work.
The target of series [5] is T1, Human recombinant cytoplasmic cSHMT (Homo sapiens, UniProt P34896).
T1 sequence (P34896 1-483): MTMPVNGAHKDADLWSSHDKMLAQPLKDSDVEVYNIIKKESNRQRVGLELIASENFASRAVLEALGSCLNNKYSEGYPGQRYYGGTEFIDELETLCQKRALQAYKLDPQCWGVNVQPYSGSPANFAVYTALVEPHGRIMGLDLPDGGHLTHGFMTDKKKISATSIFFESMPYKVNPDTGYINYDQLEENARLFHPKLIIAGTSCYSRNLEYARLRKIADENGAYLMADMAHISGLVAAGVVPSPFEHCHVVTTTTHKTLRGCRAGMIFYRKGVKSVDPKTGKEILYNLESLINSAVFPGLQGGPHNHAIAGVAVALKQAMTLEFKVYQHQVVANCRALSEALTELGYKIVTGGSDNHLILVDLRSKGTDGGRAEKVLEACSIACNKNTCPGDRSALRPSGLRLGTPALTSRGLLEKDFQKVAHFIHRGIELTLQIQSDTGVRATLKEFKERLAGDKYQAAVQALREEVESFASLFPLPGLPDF
The note with it: human recombinant cytoplasmic cSHMT (ref 22); read-out: Kd of SHMT for PLP; cited from earlier work.

Another series concerns the target T2, human recombinant SHMT1 (Homo sapiens, UniProt P34896).
T2 sequence (P34896 1-483): T1 sequence (P34896 1-483)
The conditions noted are these: human recombinant SHMT1 (ref 23); read-out: Kd of SHMT for PLP; cited from earlier work.

Another series addresses T3, human recombinant SHMT2 (Homo sapiens, UniProt P34897).
T3 sequence (P34897 30-504): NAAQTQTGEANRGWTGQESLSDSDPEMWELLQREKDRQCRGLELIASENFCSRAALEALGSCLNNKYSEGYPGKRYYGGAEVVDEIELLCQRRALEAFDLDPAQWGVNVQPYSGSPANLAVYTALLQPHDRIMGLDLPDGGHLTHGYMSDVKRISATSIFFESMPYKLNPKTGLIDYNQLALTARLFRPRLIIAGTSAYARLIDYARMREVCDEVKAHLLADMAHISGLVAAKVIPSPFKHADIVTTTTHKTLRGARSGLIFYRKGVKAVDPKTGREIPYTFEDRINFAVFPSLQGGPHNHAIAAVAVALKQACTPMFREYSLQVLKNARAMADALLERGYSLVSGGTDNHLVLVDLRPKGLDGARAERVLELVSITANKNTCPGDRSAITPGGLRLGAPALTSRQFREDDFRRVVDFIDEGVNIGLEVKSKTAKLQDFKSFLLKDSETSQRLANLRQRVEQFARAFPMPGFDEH
The note with it: human recombinant SHMT2 (ref 23); read-out: Kd of SHMT for PLP; cited from earlier work.

For series [6] the following is noted: female, Balb/C, mouse, in vivo; for Time by which erythrocyte PLP levels approach baseline concentrations after injection: ip.
Source text: Blood was collected in heparin. Measurements of B6 vitamers were done by HPLC.28
The conditions of series [7]: mice, one or two injections of PM at 150 or 450 mg/kg.

By Kd is commonly meant a measure of binding affinity in units of concentration.

Turning to `O=c1[nH]cc(F)c(=O)[nH]1` [FUra, 5-fluorouracil], the IC50 was determined as 1.18 µmol/L in [1], 1.31 µmol/L in series [2] and 0.47 µmol/L in series [3].
Consider `Cc1ncc(COP(=O)(O)O)c(C=O)c1O` [PLP, pyridoxal 5′-phosphate], for which, in the series with Cancer cells, the “Cytotoxic properties per se” value is “neither folinic acid nor PLP carry cytotoxic properties per se”. The Kd is 700 nM in [4], 850 nM in series [5], 250 nM on human recombinant SHMT1 and 440 nM at human recombinant SHMT2.
Turning to `Cc1ncc(CO)c(CN)c1O` [PM, pyridoxamine], in series [6], the “Peak erythrocyte PLP concentration, 450 mg/kg versus 150 mg/kg” value is on record as “about 6 fold” and the “Time by which erythrocyte PLP levels approach baseline concentrations after injection” value was no more than 12 h. For the same compound, in series [7], the “Signs of acute toxicity” value was “No signs of acute toxicity”.
Consider `Cc1ncc(CO)c(CO)c1O` [PN, pyridoxine, reference compound], for which the “Time by which erythrocyte PLP levels approach baseline concentrations after injection” value in series [6] is no more than 12 h.
Regarding `Nc1nc2c(c(=O)[nH]1)N(C=O)C(CNc1ccc(C(=O)N[C@@H](CCC(=O)O)C(=O)O)cc1)CN2` (stereo partly shown) [folinic acid, N5-formyl tetra hydro pteroylglutamate, reference compound], the “Cytotoxic properties per se” value in the series with Cancer cells is “neither folinic acid nor PLP carry cytotoxic properties per se”.

Source of the values: patent US20210213020A1, “METHODS AND PHARMACEUTICAL COMPOSITIONS FOR TREATING CANCER” (INSERM (INSTITUT NATIONAL DE LA SANTÉ ET DE LA RECHIRCHE …, priority 2018, published 2021).
